Biological target: T1, human DP2 receptor (Homo sapiens, UniProt Q9Y5Y4)
T1 construct: expressed in transfected cells
T1 sequence (Q9Y5Y4 1-395): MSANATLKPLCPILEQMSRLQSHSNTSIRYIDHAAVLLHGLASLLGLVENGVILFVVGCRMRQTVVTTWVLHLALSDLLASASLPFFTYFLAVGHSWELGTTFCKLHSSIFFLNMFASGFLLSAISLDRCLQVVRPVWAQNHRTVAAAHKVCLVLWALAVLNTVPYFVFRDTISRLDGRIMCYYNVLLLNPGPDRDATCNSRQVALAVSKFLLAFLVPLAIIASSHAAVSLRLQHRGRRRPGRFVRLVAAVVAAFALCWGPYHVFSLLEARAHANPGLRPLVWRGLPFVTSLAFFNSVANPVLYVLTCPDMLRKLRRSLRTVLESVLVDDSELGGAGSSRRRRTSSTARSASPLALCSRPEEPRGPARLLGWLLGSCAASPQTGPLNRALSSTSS
Assay: DP2/CRTH2 binding assay (radioligand binding with [3H]PGD2)
Details: [3H]PGD2 binding, membranes of HEK293 cells expressing recombinant human DP2; read-out: hDP2
Method: The ability of a compound to bind to the human DP2 receptor is assessed via a radioligand binding assay using [^3H]PGD2. HEK293 cells stably expressing recombinant human DP2 are resuspended in 10 mM Hepes, 7.4 containing 1 mM DTT, lysed and centrifuged at 75,000×g to pellet the membranes. The membranes are resuspended in 10 mM Hepes, 7.4 containing 1 mM DTT and 10% glycerol to approximately 5 mg protein/ml. Membranes (2-10 μg protein/well) are incubated in 96-well plates with 1 nM [^3H]PGD2 and test compound in Assay Buffer (50 mM Hepes, 10 mM MnCl2, 1 mM EDTA, plus or minus 0.2% human serum albumin, pH 7.4) for 60 minutes at room temperature. The reactions are terminated by rapid filtration through Whatman GF/C glass fibre filter plates. The filter plates were pre-soaked in 0.33% polythylenimine for 30 minutes at room temperature then washed in Wash Buffer (50 mM Hepes, 0.5 M NaCl pH 7.4) prior to harvesting. After harvesting, the filter plates are washed 3 times with 1 ml cold Wash Buffer then dried. Scintillant is then added to the plates and the radioactivity retained on the filters is determined on a Packard TopCount (Perkin Elmer). Specific binding is determined as total radioactive binding minus non-specific binding in the presence of 10 μM PGD2. IC50s were determined using GraphPad prism analysis of drug titration curves.

| SMILES | IC50 |
| --- | --- |
| CCN(Cc1cc(C(=O)O)ccc1-c1cncc(CC(=O)O)c1)C(=O)C1CC1 [Compound 2, 4-(5-Carboxymethyl-pyridin-3-yl)-3-[(N-cyclopropanecarbonyl-N-ethyl-amino)-methyl]-benzoic acid] | < 300 nM |
| N#Cc1ccc(-c2cncc(CC(=O)O)c2)c(CN(Cc2ccccc2)C(=O)C2CC2)c1 [Compound 3, (5-{2-[(N-Benzyl-N-cyclopropanecarbonyl-amino)-methyl]-4-cyano-phenyl}-pyridin-3-yl)-acetic acid] | < 300 nM |
| CC(C)(C)NC(=O)c1ccc(-c2cncc(CC(=O)O)c2)c(CN(Cc2ccccc2)C(=O)C2CC2)c1 [Compound 7, (5-{2-[(N-Benzyl-N-cyclopropanecarbonyl-amino)-methyl]-4-tert-butylcarbamoyl-phenyl}-pyridin-3-yl)-acetic acid] | 300 to 1000 nM |
| CCN(Cc1cc(C(F)(F)F)ccc1-c1cncc(CC(=O)O)c1)C(=O)C1CC1 [Compound 8, (5-{2-[(N-Cyclopropanecarbonyl-N-ethyl-amino)-methyl]-4-trifluoromethyl-phenyl}-pyridin-3-yl)-acetic acid] | < 300 nM |
| CCN(Cc1cc(C(F)(F)F)ccc1-c1cc(CC(=O)O)cnc1OC)C(=O)C1CC1 [Compound 10, (5-{2-[(N-Cyclopropanecarbonyl-N-ethyl-amino)-methyl]-4-trifluoromethyl-phenyl}-6-methoxy-pyridin-3-yl)-acetic acid] | < 300 nM |
| CCN(Cc1cc(C(F)(F)F)ccc1-c1cc(CC(=O)O)cnc1Cl)C(=O)C1CC1 [Compound 11, (6-Chloro-5-{2-[(N-cyclopropanecarbonyl-N-ethyl-amino)-methyl]-4-trifluoromethyl-phenyl}-pyridin-3-yl)-acetic acid] | 300 to 1000 nM |
| CCN(Cc1cc(C(F)(F)F)ccc1-c1cncc(CC(=O)O)c1)C(=O)OCc1ccccc1 [Compound 12, (5-{2-[(N-Benzyloxycarbonyl-N-ethyl-amino)-methyl]-4-trifluoromethyl-phenyl}-pyridin-3-yl)-acetic acid] | < 300 nM |
| CCN(Cc1cc(C(F)(F)F)ccc1-c1cncc(CC(=O)O)c1)C(=O)OC(C)(C)C [Compound 13, (5-{2-[(N-tert-Butoxycarbonyl-N-ethyl-amino)-methyl]-4-trifluoromethyl-phenyl}-pyridin-3-yl)-acetic acid] | < 300 nM |
| CCN(Cc1cc(C(F)(F)F)ccc1-c1cncc(CC(=O)O)c1)C(=O)NCc1ccccc1 [Compound 14, {5-[2-(3-Benzyl-1-ethyl-ureidomethyl)-4-trifluoromethyl-phenyl]-pyridin-3-yl}-acetic acid] | < 300 nM |

Now from value to molecule:

| IC50 | SMILES |
| --- | --- |
| < 300 nM | CCN(Cc1cc(C(=O)O)ccc1-c1cncc(CC(=O)O)c1)C(=O)OCc1ccccc1 [Compound 1, 3-[(N-Benzyloxycarbonyl-N-ethyl-amino)-methyl]-4-(5-carboxymethyl-pyridin-3-yl)-benzoic acid] |
| < 300 nM | O=C(O)Cc1cncc(-c2ccc(-c3nn[nH]n3)cc2CN(Cc2ccccc2)C(=O)C2CC2)c1 [Compound 4, {5-[2-[(N-Benzyl-N-cyclopropanecarbonyl-amino)-methyl]-4-(2H-tetrazol-5-yl)-phenyl]-pyridin-3-yl}-acetic acid] |
| < 300 nM | O=C(O)Cc1cncc(-c2ccc(C(=O)NCc3ccccc3)cc2CN(Cc2ccccc2)C(=O)C2CC2)c1 [Compound 5, (5-{4-Benzylcarbamoyl-2-[(N-benzyl-N-cyclopropanecarbonyl-amino)-methyl]-phenyl}-pyridin-3-yl)-acetic acid] |
| 300 to 1000 nM | CNC(=O)c1ccc(-c2cncc(CC(=O)O)c2)c(CN(Cc2ccccc2)C(=O)C2CC2)c1 [Compound 6, (5-{2-[(N-Benzyl-N-cyclopropanecarbonyl-amino)-methyl]-4-methylcarbamoyl-phenyl}-pyridin-3-yl)-acetic acid] |
| 300 to 1000 nM | CCN(Cc1cc(C(F)(F)F)ccc1-c1cnc(Cl)c(CC(=O)O)c1)C(=O)C1CC1 [Compound 9, (2-Chloro-5-{2-[(N-cyclopropanecarbonyl-N-ethyl-amino)-methyl]-4-trifluoromethyl-phenyl}-pyridin-3-yl)-acetic acid] |

Source: US8049015B2 (Panmira Pharmaceuticals, LLC, priority 2008, dated 2011)
